From patent publication US20220323406A1, “METHODS AND COMPOSITIONS FOR DIFFERENTIATING STEM CELLS” (Massachusetts Institute of Technology, priority 2019, published 2022)

What was measured:
ENR+CD organoids = test: Primary screen: ATP (CellTiter-Glo 3D, CTG) cell number/viability, 2.5-D 384-well ENR+CD organoids; details: primary screen; for Z.CTG: standard z score;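 on all read-outs here: compounds given at plating and again on day 3 over a 6-day differentiation from ENR+CV stem-cell-enriched precursors, ATP measured on day 6, plate median as control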
[1] = system: ENR+CD organoids (ISC to Paneth cell differentiation); test: Primary screen: CCh-stimulated lysozyme secretion LYZ.S, 2.5-D 384-well ENR+CD organoid differentiation; assay type: cell-based, mouse; details: primary screen
Source text: (§1) High-throughput screening.

[2] = system: ENR+CD organoids (ISC to Paneth cell differentiation); test: Primary screen: basal (non-stimulated) lysozyme secretion LYZ.NS, 2.5-D 384-well ENR+CD organoid differentiation; assay type: cell-based, mouse; details: primary screen; for Z.LYZ.NS: standard z score
Source text: as §1

Row | SMILES | Dose.FC.CTG (log2 fold change) (ENR+CD organoids; dose 0.08 uM) | Z.CTG (standard z score) (ENR+CD organoids; dose 0.08 uM) | Dose.FC.CTG (log2 fold change) (ENR+CD organoids; dose 0.40 uM) | Z.CTG (standard z score) (ENR+CD organoids; dose 0.40 uM) | Dose.FC.CTG (log2 fold change) (ENR+CD organoids; dose 2.00 uM) | Z.CTG (standard z score) (ENR+CD organoids; dose 2.00 uM) | Dose.FC.CTG (log2 fold change) (ENR+CD organoids; dose 10.00 uM) | Z.CTG (standard z score) (ENR+CD organoids; dose 10.00 uM) | Dose.FC.LYZ.S (log2 fold change) ([1]; dose 0.08 uM) | Dose.FC.LYZ.S (log2 fold change) ([1]; dose 0.40 uM) | Dose.FC.LYZ.S (log2 fold change) ([1]; dose 2.00 uM) | Dose.FC.LYZ.S (log2 fold change) ([1]; dose 10.00 uM) | Dose.FC.LYZ.NS (log2 fold change) ([2]; dose 0.08 uM) | Z.LYZ.NS (standard z score) ([2]; dose 0.08 uM) | Dose.FC.LYZ.NS (log2 fold change) ([2]; dose 0.40 uM) | Z.LYZ.NS (standard z score) ([2]; dose 0.40 uM) | Dose.FC.LYZ.NS (log2 fold change) ([2]; dose 2.00 uM) | Z.LYZ.NS (standard z score) ([2]; dose 2.00 uM) | Dose.FC.LYZ.NS (log2 fold change) ([2]; dose 10.00 uM) | Z.LYZ.NS (standard z score) ([2]; dose 10.00 uM) | further results
1 | O=C(O)CCc1ccc(NCc2cccc(Oc3ccccc3)c2)cc1 [GW9508] | 0.063 | 0.151 | 0.174 | 0.417 | −0.001 | −0.003 | −0.059 | −0.140 | 0.067 | 0.049 | 0.000 | −0.045 | 0.075 | 0.650 | 0.019 | 0.169 | −0.011 | −0.092 | −0.040 | −0.350 | –
2 | O=C(Nc1ccccc1)c1cc([N+](=O)[O-])ccc1Cl [GW9662] | 0.115 | 0.274 | 0.041 | 0.098 | 0.212 | 0.508 | 0.133 | 0.318 | 0.036 | 0.080 | 0.093 | 0.020 | 0.035 | 0.305 | 0.098 | 0.852 | 0.046 | 0.400 | 0.030 | 0.264 | –
3 | Cn1cc(/C=C2\C(=O)Nc3cccnc32)c2ccccc21 [GW441756] | 0.048 | 0.114 | −0.105 | −0.252 | 0.152 | 0.364 | −0.113 | −0.270 | 0.075 | 0.196 | 0.125 | 0.071 | 0.046 | 0.399 | 0.061 | 0.529 | 0.117 | 1.023 | 0.088 | 0.763 | –
4 | CC(C)c1cc(-c2n[nH]c(=O)n2-c2ccc3c(ccn3C)c2)c(O)cc1O [Ganetespib (STA-9090)] | – | – | – | – | – | – | – | – | – | – | – | – | – | – | – | – | – | – | – | – | Dose.FC.CTG (ENR+CD organoids; dose 0.08 uM): −1.450 log2 fold change; Dose.FC.CTG (ENR+CD organoids; dose 0.40 uM): −2.105 log2 fold change; Dose.FC.CTG (ENR+CD organoids; dose 2.00 uM): −1.721 log2 fold change; Dose.FC.CTG (ENR+CD organoids; dose 10.00 uM): −1.620 log2 fold change; Z.CTG (ENR+CD organoids; dose 0.08 uM): −3.465; Z.CTG (ENR+CD organoids; dose 0.40 uM): −5.027; Z.CTG (ENR+CD organoids; dose 2.00 uM): −4.110; Z.CTG (ENR+CD organoids; dose 10.00 uM): −3.871; Dose.FC.LYZ.S ([1]; dose 0.08 uM): −0.260 log2 fold change; Dose.FC.LYZ.S ([1]; dose 0.40 uM): −0.250 log2 fold change; Dose.FC.LYZ.S ([1]; dose 2.00 uM): −0.260 log2 fold change; Dose.FC.LYZ.S ([1]; dose 10.00 uM): −0.267 log2 fold change; Dose.FC.LYZ.NS ([2]; dose 0.08 uM): −0.141 log2 fold change; Dose.FC.LYZ.NS ([2]; dose 0.40 uM): −0.155 log2 fold change; Dose.FC.LYZ.NS ([2]; dose 2.00 uM): −0.150 log2 fold change; Dose.FC.LYZ.NS ([2]; dose 10.00 uM): −0.136 log2 fold change; Z.LYZ.NS ([2]; dose 0.08 uM): −1.226; Z.LYZ.NS ([2]; dose 0.40 uM): −1.345; Z.LYZ.NS ([2]; dose 2.00 uM): −1.309; Z.LYZ.NS ([2]; dose 10.00 uM): −1.181
5 | C[C@@H]1C(=O)O[C@H]2C[C@@]34[C@H]5C[C@@H](C(C)(C)C)[C@]36[C@@H](OC(=O)[C@@H]6O)O[C@@]4(C(=O)O5)[C@]21O [Ginkgolide A] | – | – | – | – | – | – | – | – | – | – | – | – | – | – | – | – | – | – | – | – | Dose.FC.CTG (ENR+CD organoids; dose 0.08 uM): 0.005 log2 fold change; Dose.FC.CTG (ENR+CD organoids; dose 0.40 uM): −0.017 log2 fold change; Dose.FC.CTG (ENR+CD organoids; dose 2.00 uM): 0.040 log2 fold change; Dose.FC.CTG (ENR+CD organoids; dose 10.00 uM): −0.012 log2 fold change; Z.CTG (ENR+CD organoids; dose 0.08 uM): 0.011; Z.CTG (ENR+CD organoids; dose 0.40 uM): −0.040; Z.CTG (ENR+CD organoids; dose 2.00 uM): 0.095; Z.CTG (ENR+CD organoids; dose 10.00 uM): −0.028; Dose.FC.LYZ.S ([1]; dose 0.08 uM): 0.124 log2 fold change; Dose.FC.LYZ.S ([1]; dose 0.40 uM): 0.161 log2 fold change; Dose.FC.LYZ.S ([1]; dose 2.00 uM): 0.002 log2 fold change; Dose.FC.LYZ.S ([1]; dose 10.00 uM): −0.028 log2 fold change; Dose.FC.LYZ.NS ([2]; dose 0.08 uM): 0.045 log2 fold change; Dose.FC.LYZ.NS ([2]; dose 0.40 uM): 0.025 log2 fold change; Dose.FC.LYZ.NS ([2]; dose 2.00 uM): 0.030 log2 fold change; Dose.FC.LYZ.NS ([2]; dose 10.00 uM): 0.052 log2 fold change; Z.LYZ.NS ([2]; dose 0.08 uM): 0.395; Z.LYZ.NS ([2]; dose 0.40 uM): 0.222; Z.LYZ.NS ([2]; dose 2.00 uM): 0.258; Z.LYZ.NS ([2]; dose 10.00 uM): 0.450
